Data on 18 compounds can be found in publication PMC12226733, “Evolution of iGluR ligand specificity, polyamine regulation, and ion selectivity inferred from a placozoan epsilon receptor” (Communications Biology, 2025).

The target in assay [1] is T. adhaerens GluE1αA receptor (wildtype) (Trichoplax adhaerens, UniProt B3SAW0). Nature of the assay: whole-cell patch clamp, agonist-evoked currents in CHO-K1 cells. It counts as cell-based. Particulars: for normalized peak inward current, Avg / normalized peak inward current, single recording: wild type; for sensitivity to agonist: 1 mM. On the technique in general: The patch-clamp technique gives a direct electrical read-out from membranes.
Sequence of T. adhaerens GluE1αA receptor (wildtype) (B3SAW0 entry or part of it): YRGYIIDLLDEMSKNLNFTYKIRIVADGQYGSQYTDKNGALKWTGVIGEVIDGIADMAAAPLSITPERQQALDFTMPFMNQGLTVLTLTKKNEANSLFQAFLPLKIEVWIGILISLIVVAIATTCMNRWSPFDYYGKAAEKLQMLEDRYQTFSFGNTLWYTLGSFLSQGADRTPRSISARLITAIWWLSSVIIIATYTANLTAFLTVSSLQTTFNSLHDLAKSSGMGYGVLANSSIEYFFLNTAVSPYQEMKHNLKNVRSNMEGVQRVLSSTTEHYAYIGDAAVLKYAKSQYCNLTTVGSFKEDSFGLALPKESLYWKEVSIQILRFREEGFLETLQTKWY

The test system of assay [2] is GluE1αA m1 variant (F732Y). It counts as cell-based, Trichoplax adhaerens. Particulars: m1; ligand 10 mM; normalized to glycine. The source says: (§1) As noted, a model has been put forward that defines iGluR ligand specificity based on a set of key amino acids in the LBD of iGluRs[11]. […] To the best of our knowledge, whether these few positions are indeed solely responsible for ligand specificity, and moreover, can be altered to switch specificity for natural ligands, has not been experimentally tested. […] We also created a triple mutant, with an additional phenylalanine to tyrosine mutation at position 732 (F732Y; m3 variant), to make the T. adhaerens epsilon receptor resemble GluN2A and GluA2 receptors from human, reasoning that this mutation might enhance glutamate sensitivity. We also generated a single F732Y mutant (m1 variant), to assess the contribution of this amino acid to ligand specificity in isolation.
(§2) The cDNA of the T. adhaerens GluE1αA receptor was cloned into the mammalian expression vector pIRES2-EGFP, using a 5’ nested primer that inserted a mammalian consensus Kozak sequence of […] (Supplementary Table 5). Several mutants/variants of this receptor where also prepared via site directed mutagenesis using standard procedures and primers listed in Supplementary Table 5. For electrophysiological comparisons, we commissioned GenScript (USA) to synthesize the cDNA of the human GluA2 […] receptor (NCBI accession number NP_001077088.2), which was cloned into the pIRES2-EGFP vector with a Kozak sequence flanking the start codon and restriction enzymes SalI and BamHI at the 5’ and 3’ ends of the cDNA, respectively. Receptor cDNAs in the various pIRES2 constructs were transfected into Chinese Hamster Ovary-K1 (CHO-K1; Sigma) cells cultured in Dulbecco’s Modified Eagle Medium Nutrient Mixture F-12 (DMEM/F12) supplemented with 10% Fetal Bovine Serum (FBS) and 1% penicillin-streptomycin at 37°C. Transfections were done with 2 μg of plasmid vector using the transfecting reagent PolyJet^TM (SignaGen Laboratories, USA) according to the manufacturer’s instructions and plated onto glass coverslips in 35 mm dishes the next day. Transfected cells were incubated at 28°C for 2 to 4 days, then coverslips were transferred to a new 60 mm dish with 5 mL of external recording solution. […] Agonists and pharmacological compounds used in this study were dissolved in corresponding external solutions. […] Patch pipettes were pulled using a P-1000 micropipette puller (Sutter, USA), from thick-walled borosilicate tubing (1.5 and 0.86 outer and inner diameter, respectively), to a resistance of between 1 and 6 megaohms.

Assay [3] has as its system GluE1αA m2 variant (S653G, I655T). It counts as cell-based, Trichoplax adhaerens. Particulars: for normalized peak inward current, Avg / normalized peak inward current, single recording / normalized current (dose response), Avg / normalized current (dose response), single recording: m2.
Source text: as §1, §2

In assay [4] the test system is GluE1αA m3 variant (S653G, I655T, F732Y). It counts as cell-based, Trichoplax adhaerens. The conditions noted are these: for normalized peak inward current, Avg / normalized peak inward current, single recording / normalized current (dose response), Avg / normalized current (dose response), single recording: m3.
Source text: as §1, §2

The mark [5] stands for this setting: ligand tested on its own at 10 mM.
The mark [6] stands for this setting: ligand 10 mM, normalized to glycine.
The mark [7] stands for this setting: ligand 10 mM, normalized to glutamate.
[8] abbreviates: tested as a single mix each at 3 mM.

The structures appear in SMILES notation. “And” between values parts separate entries of the source, which are not always exact repeats. Equal entries are not always repeated. “Also recorded” adds a separate entry of the source. Where two headings read alike, the source gives them in different places.

As to `N=C(N)NCCC[C@H](N)C(=O)O` [arginine], the “activation of ligand-gated current” value in assay [1] (setting [5]) was “no responses”.

Take `N[C@@H](CCC(=O)O)C(=O)O` [glutamate]: the “activation of ligand-gated current” value in assay [1] (setting [5]) is “no responses”. Besides, the “normalized peak inward current, Avg” value in assay [1] (agonist 1 mM) was determined as 0.0035; in assay [1] (setting [6]), 0.00871; in assay [2] it was 0.02; in assay [3] (agonist 1 mM), 0.76; in assay [3] (setting [7]), 1.00; in assay [4] (agonist 1 mM) it was 1.00. In addition, in assay [4] (setting [7]), the “normalized peak inward current, Avg” value was determined as 1.00. Besides, the “normalized peak inward current, single recording” value is 0.74 and 0.64 and 0.71 and 0.87 and 0.80 in assay [3] (agonist 1 mM, listed as Glu); 1.00 in assay [3] (setting [7]); 1.03 and 1.05 and 1.08 and 0.95 and 0.92 and 0.91 in assay [4] (agonist 1 mM, listed as Glu); 1.00 in assay [4] (setting [7]). The “normalized current (dose response), Avg” value in assay [3] (glutamate 0.3 mM) amounted to 0.0181; in assay [3] (glutamate 1 mM), 0.22; in assay [3] (glutamate 3 mM), 0.76; in assay [3] (glutamate 10 mM) it was 0.98; in assay [4] (glutamate 0.1 mM), 0.02; in assay [4] (glutamate 0.3 mM), 0.16. Further, the “normalized current (dose response), Avg” value is listed as 0.88 in assay [4] (glutamate 1 mM) and 0.95 in assay [4] (glutamate 3 mM). Further, the “normalized current (dose response), single recording” value in assay [3] (glutamate 1 mM) was 0.14 and 0.22 and 0.25 and 0.19 and 0.27; in assay [3] (glutamate 3 mM), 0.66 and 0.88 and 0.67 and 0.63 and 0.98 and 0.72; in assay [3] (glutamate 10 mM) it was 1.00 and 0.98 and 0.92; in assay [4] (glutamate 0.3 mM) it was 0.14 and 0.12 and 0.11 and 0.13 and 0.20 and 0.16 and 0.19; in assay [4] (glutamate 1 mM), 0.97 and 0.78 and 0.74 and 0.89 and 0.95 and 0.87 and 0.86 and 0.96; in assay [4] (glutamate 3 mM), 0.98 and 0.83 and 1.00 and 0.87. The sensitivity to agonist entry in assay [3] (m2 variant, 1 mM) is given as “robust responses”. For the same compound, the 50% effective concentration (EC50) (in general, the concentration at which the effect is half-maximal) in assay [3] (m2 variant, dose response of normalized current) was found to be 1810 ± 200 µM; in assay [4] (m3 variant, dose response of normalized current), 610 ± 60 µM.

As to `CC(C)[C@H](N)C(=O)O` [valine], the “activation of ligand-gated current” value in assay [1] (setting [5]) is “weakly”. The “normalized peak inward current, Avg” value in assay [1] (setting [6]) is recorded as 0.35; in assay [2], 0.0347; in assay [3] (setting [7]) it was 0.00917; in assay [4] (setting [7]), 0.0123. For the same compound, the “normalized current (dose response), Avg” value stood at 0.0282 in assay [1] (wildtype, ligand 0.30 mM); 0.32 in assay [1] (wildtype, ligand 1.00 mM); 0.83 in assay [1] (wildtype, ligand 3.00 mM); 1.00 in assay [1] (wildtype, ligand 10.00 mM); 0.56 in assay [1] (wildtype, ligand […]). Besides, the “normalized current (dose response), single recording” value in assay [1] (wildtype, ligand 3.00 mM) was 0.85 and 0.78 and 0.82 and 0.89 and 0.92 and 0.71 and 0.81 and 0.88; in assay [1] (wildtype, ligand 10.00 mM) it was 1.00.

As to `CN[C@H](CC(=O)O)C(=O)O` [NMDA, N-methyl-D-aspartate], the “normalized peak inward current, Avg” value in assay [1] (agonist 1 mM) is 0.00229; in assay [3] (agonist 1 mM), 0.0107; in assay [4] (agonist 1 mM), 0.00471. Moreover, the sensitivity to agonist entry in assay [1] (wildtype) is reported as “insensitivity; also recorded: not sensitive”.

In the case of `C=C(C)[C@H]1CN[C@H](C(=O)O)[C@H]1CC(=O)O` [kainate], the “normalized peak inward current, Avg” value in assay [1] (agonist 1 mM) came out at 0.00265; in assay [3] (agonist 1 mM), 0.00537; in assay [4] (agonist 1 mM), 0.00374. Besides, the sensitivity to agonist result in assay [1] (wildtype) was “insensitivity; also recorded: not sensitive”.

As to `Cc1onc(O)c1CC(N)C(=O)O` (stereo not drawn) [AMPA, α-amino-3-hydroxy-5-methyl-4-isoxazolepropionic acid], the “normalized peak inward current, Avg” value in assay [1] (agonist 1 mM) turned out to be 0.00463; in assay [3] (agonist 1 mM) it was 0.00676; in assay [4] (agonist 1 mM) it was 0.36. The sensitivity to agonist entry in assay [1] (wildtype) is reported as “insensitivity; also recorded: not sensitive”; in assay [4] (m3 variant, 1 mM), “moderate responses; also recorded: sensitive”. In assay [4] (agonist 1 mM), the “normalized peak inward current, single recording” value is 0.33 and 0.26 and 0.30 and 0.41 and 0.44 and 0.43. In addition, the “peak amplitude relative to current elicited by 1 mM glutamate” value in assay [4] (m3 variant, 1 mM AMPA, slow desensitizing currents) was “roughly 36%”.

For `C[N+](C)(C)CC(=O)O` [betaine], the “activation of ligand-gated current” value in assay [1] (setting [5]) is “no responses”.

As to `N[C@@H](CC(=O)O)C(=O)O` [aspartate], the “activation of ligand-gated current” value in assay [1] (setting [5]) was “no responses”.

Consider `NCCCC[C@H](N)C(=O)O` [lysine], for which the “activation of ligand-gated current” value in assay [1] (setting [8]) is “no responses”.

For the compound `N[C@@H](Cn1oc(=O)[nH]c1=O)C(=O)O` [quisqualate], the “normalized peak inward current, Avg” value in assay [1] (agonist 1 mM) was 0.00248; in assay [3] (agonist 1 mM), 0.00939; in assay [4] (agonist 1 mM), 0.01. In assay [1] (wildtype), the sensitivity to agonist result is “not sensitive”.

Take `CSCC[C@H](N)C(=O)O` [methionine]: the “activation of ligand-gated current” value in assay [1] was “no responses”.

As for `C[C@H](N)C(=O)O` [alanine, L-alanine], the “normalized current (dose response), Avg” value in assay [1] stood at 0.80; in assay [1] (wildtype, ligand 0.01 mM), 0.0244; in assay [1] (wildtype, ligand 0.03 mM) it was 0.28; in assay [1] (wildtype, ligand 0.30 mM), 1.00; in assay [1] (wildtype, ligand […]), 0.60. Further, the “normalized current (dose response), single recording” value in assay [1] was 0.66 and 0.73 and 0.79 and 0.89 and 0.75 and 0.91 and 0.87 and 0.80; in assay [1] (wildtype, ligand 0.30 mM) it was 1.00. Further, the “activation of ligand-gated current” value in assay [1] (setting [5]) was “activated”. For the same compound, the “normalized peak inward current, Avg” value in assay [1] (setting [6]) came out at 0.89; in assay [2] it was 1.12; in assay [3] (setting [7]) it was 0.36; in assay [4] (setting [7]), 0.0342. For the same compound, the “normalized peak inward current, single recording” value in assay [1] (setting [6]) is 0.85 and 0.96 and 0.83 and 1.00 and 0.82; in assay [2], 1.10 and 1.06 and 1.08 and 1.13 and 1.23; in assay [3] (setting [7]), 0.33 and 0.37 and 0.40 and 0.41 and 0.31.

As for `N[C@@H](Cc1c[nH]cn1)C(=O)O` [histidine], in assay [1] (setting [8]), the “activation of ligand-gated current” value is recorded as “no responses”.

Consider `N[C@@H](CO)C(=O)O` [L-serine], for which the “activation of ligand-gated current” value in assay [1] (setting [5]) is “activated”. Moreover, the “normalized peak inward current, Avg” value stood at 0.94 in assay [1] (setting [6]), 1.05 in assay [2], 0.20 in assay [3] (setting [7]) and 0.07 in assay [4] (setting [7]). Also, the “normalized peak inward current, single recording” value was 1.00 and 0.98 and 0.94 and 0.78 and 0.93 and 0.97 in assay [1] (setting [6]); 1.18 and 1.01 and 1.00 and 1.05 in assay [2]; 0.17 and 0.18 and 0.24 and 0.27 in assay [3] (setting [7]). The “normalized current (dose response), Avg” value was 0.017 in assay [1] (wildtype, ligand 0.03 mM); 0.35 in assay [1] (wildtype, ligand 0.10 mM); 0.95 in assay [1] (wildtype, ligand 0.30 mM); 1.00 in assay [1] (wildtype, ligand 1.00 mM); 0.63 in assay [1] (wildtype, ligand […]). In addition, the “normalized current (dose response), single recording” value in assay [1] (wildtype, ligand 0.30 mM) is 1.00 and 0.97 and 0.95 and 0.77 and 0.99; in assay [1] (wildtype, ligand 1.00 mM), 0.99 and 1.00 and 0.98.

Consider `C[C@@H](O)[C@H](N)C(=O)O` [threonine], for which the “activation of ligand-gated current” value in assay [1] (setting [5]) is “no responses”.

Regarding `CC[C@H](C)[C@H](N)C(=O)O` [isoleucine], in assay [1] (setting [8]), the “activation of ligand-gated current” value is “no responses”.

Consider `N[C@@H](Cc1ccccc1)C(=O)O` [phenylalanine], for which the “activation of ligand-gated current” value in assay [1] (setting [8]) was “no responses”.

On to `CC(C)C[C@H](N)C(=O)O` [leucine], for which the “activation of ligand-gated current” value in assay [1] (setting [8]) is on record as “no responses”.
